Like-named read-outs stand apart in the source and are kept apart here.
How the values were obtained:
Assay in all cases: Fluorimetric PPyrPM assay for group 1B PLA2 inhibition (Example 12)
Format in all cases: biochemical
[1] = target: T1, porcine group 1B PLA2 (pps PLA2) (Sus scrofa, UniProt P00592); conditions: porcine pancreas secreted PLA2; for IC50: read-out: ILYPSA IC50 pps PLA2
T1 construct: purchased
Excerpt: (§1) In this example, a fluorimetric assay procedure was used to evaluate the indole and indole-related compounds of the invention as inhibitors of group 1B phospholipase A2 (PLA2) from human, mouse and porcine. A description of this assay is found in articles: Leslie, C C and Gelb, M H (2004) Methods in Molecular Biology “Assaying phospholipase A2 activity”, 284:229-242; Singer, A G, et al. (2002) Journal of Biological Chemistry “Interfacial kinetic and binding properties of the complete set of human and mouse groups I, II, V, X, and XII secreted phospholipases A2”, 277:48535-48549, which are incorporated herein as references.
(§2) In general, this assay used a phosphatidylmethanol substrate with a pyrene fluorophore on the terminal end of the sn-2 fatty acyl chain. Without being bound by theory, close proximity of the pyrenes from neighboring phospholipids in a phospholipid vesicle caused the spectral properties to change relative to that of monomeric pyrene. Bovine serum albumin was present in the aqueous phase and captured the pyrene fatty acid when it is liberated from the glycerol backbone owing to the PLA2-catalyzed reaction. However, a potent inhibitor can inhibit the liberation of pyrene fatty acid from the glycerol backbone. […] The effect of a given inhibitor and inhibitor concentration on human, mouse and porcine phospholipase was determined.
(§3) The following reagents and equipments were obtained from commercial vendors: • 1. Porcine group 1B phospholipase A2 • 2. 1-hexadecanoyl-2-(1-pyrenedecanoyl)-sn-glycero-3-phosphomethanol (PPyrPM) • 3. Bovine serum albumin (BSA, fatty acid free) • 4. 2-Amino-2-(hydroxymethyl)-1,3-propanediol, hydrochloride (Tris-HCl) • 5. Calcium chloride • 6. Potassium chloride • 7. Solvents: DMSO, toluene, isopropanol, ethanol • 8. Molecular Devices SPECTRAmax microplate spectrofluorometer • 9. Costar 96 well black wall/clear bottom plate
(§4) The following reagents were prepared: • 10. PPyrPM stock solution (1 mg/ml) in toluene:isopropanol (1:1) • 11. ILY104 inhibitor stock solution (10 mM) in DMSO • 12. 3% (w/v) bovine serum albumin (BSA) • 13. Stock buffer: 50 mM Tris-HCl, pH 8.0, 50 mM KCl and 1 mM CaCl2
The following procedure was performed to evaluate the inhibitory potency of the evaluated compounds. • 14. An assay buffer was prepared by adding 3 ml 3% BSA to 47 ml stock buffer. • 15. Solution A was prepared by adding serially diluted inhibitors to the assay buffer. Inhibitors were three-fold diluted in stock buffer in a series of 8 from 15 uM. • 16. Solution B was prepared by adding human, mouse or porcine PLA2 to the assay buffer. This solution was prepared immediately before use to minimize enzyme activity loss. • 17. Solution C was prepared by adding 30 ul PPyrPM stock solution to 90 ul ethanol, and then all 120 ul of PPyrPM solution was transferred drop-wise over approximately 1 min to the continuously stirring 8.82 ml assay buffer to form a final concentration of 4.2 uM PPyrPM vesicle solution. • 18. The SPECTRAmax microplate spectrofluorometer was set at 37° C. • 19. 100 ul of solution A was added to each inhibition assay well of a costar 96 well black wall/clear bottom plate • 20. 100 ul of solution B was added to each inhibition assay well of a costar 96 well black wall/clear bottom plate. • 21. 100 ul of solution C was added to each inhibition assay well of a costar 96 well black wall/clear bottom plate. • 22. The plate was incubated inside the spectrofluorometer chamber for 3 min. • 23. The fluorescence was read using an excitation of 342 nm and an emission of 395 nm.
Evaluated compounds were tested in duplicate and their values were averaged to plot the inhibition curve and calculate the IC50. Compared to uninhibited controls, lower fluorescent signal at an emission of 395 nm in test reactions evidenced inhibition of PLA2. […] Compounds initially found to be active were repeated to confirm their inhibitory activity. […]

[2] = target: T2, mouse group 1B PLA2 (mps PLA2) (Mus musculus, UniProt Q9Z0Y2); conditions: mouse pancreas secreted PLA2; for inhibition at 15 µM: read-out: ILYPSA % inhibition at 15 μM mps PLA2; for IC50: read-out: ILYPSA IC50 mps PLA2
T2 construct: made in house; host or cells: E. coli
Excerpt: as §1, §2
(§5) Recombinant human and mouse group 1B PLA2 were cloned and expressed in E. coli as insoluble inclusion bodies. The inclusion bodies were isolated and purified by sonicating cell pellet in lysis buffer (50 mM Tris-HCl pH 7.0, 250 mM NaCl, 0.5% Triton 100), centrifugation at 12,000×g, and washing three times in washing buffer (20 mM Tris-HCl pH 7.0, 250 mM NaCl, 0.5% Triton 100). Then the inclusion bodies were dissolved in dissolving buffer (50 mM Tris-HCl pH 7.0, 250 mM NaCl, 6 M Guanidine-HCl, 1 mM DTT) and dialyzed four times against 10 volumes of refolding buffer (20 mM Tris-HCl pH 7.0, 250 mM NaCl, 0.5M Guanidine-HCl, 5% (w/w) Glycerol, 2 mM reduced glutathione and 0.4 mM oxidized glutathione) at 4° C. The correctly refolded proteins were concentrated using Amicon Stirred cell under nitrogen pressure (<70 psi) and dialyzed against 10 volumes of 50 mM Tris-HCl pH 7.0, 250 mM NaCl and 5% (w/w) glycerol. Human and mouse group 1B PLA2 were further purified by High S ion exchange and gel filtration columns.
as §3, §4
(§6) The following procedure was performed to evaluate the inhibitory potency of the evaluated compounds. • 14. An assay buffer was prepared by adding 3 ml 3% BSA to 47 ml stock buffer. • 15. Solution A was prepared by adding serially diluted inhibitors to the assay buffer. Inhibitors were three-fold diluted in stock buffer in a series of 8 from 15 uM. • 16. Solution B was prepared by adding human, mouse or porcine PLA2 to the assay buffer. This solution was prepared immediately before use to minimize enzyme activity loss. • 17. Solution C was prepared by adding 30 ul PPyrPM stock solution to 90 ul ethanol, and then all 120 ul of PPyrPM solution was transferred drop-wise over approximately 1 min to the continuously stirring 8.82 ml assay buffer to form a final concentration of 4.2 uM PPyrPM vesicle solution. • 18. […]

[3] = target: T3, human group 1B PLA2 (hps PLA2) (Homo sapiens, UniProt P04054); conditions: for inhibition at 15 µM: read-out: ILYPSA % inhibition at 15 μM hps PLA2
T3 construct: made in house; host or cells: E. coli
Excerpt: as §1, §2, §5, §3, §4, §6

[4] = human pancreas secreted PLA2, read-out: ILYPSA IC50 hps PLA2

T2 sequence (Q9Z0Y2 23-146): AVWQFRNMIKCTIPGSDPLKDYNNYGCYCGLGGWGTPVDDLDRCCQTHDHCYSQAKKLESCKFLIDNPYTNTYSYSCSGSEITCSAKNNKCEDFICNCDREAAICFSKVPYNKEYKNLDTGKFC
T3 sequence (P04054 23-148): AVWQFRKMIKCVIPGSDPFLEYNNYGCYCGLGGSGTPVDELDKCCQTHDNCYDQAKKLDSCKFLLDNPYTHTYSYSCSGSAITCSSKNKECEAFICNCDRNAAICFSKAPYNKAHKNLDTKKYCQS
T1 sequence (P00592 23-146): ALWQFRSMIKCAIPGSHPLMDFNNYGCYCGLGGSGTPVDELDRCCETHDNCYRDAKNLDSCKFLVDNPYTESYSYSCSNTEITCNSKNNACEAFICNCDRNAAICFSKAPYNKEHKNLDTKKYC

Work on Cc1c(C(=O)C(N)=O)c2c(OCC(=O)NC(CC(=O)O)C(=O)O)nccc2n1Cc1ccccc1 (stereo not drawn) [ILY-II-12, 2-(2-(3-(2-amino-2-oxoacetyl)-1-benzyl-2-methyl-1H-pyrrolo[3,2-c]pyridin-4-yloxy)acetamido)succinic acid] yielded an IC50 [1] of 3710 nM, an inhibition at 15 µM [2] of 35.7% and an inhibition at 15 µM ([3]; human pancreas secreted PLA2) of 16.6%.

Cc1c(C(=O)C(N)=O)c2c(OCC(=O)O)cccc2n1CCCCCCCCCCCCSCCCCCCCCCCCCn1c(C)c(C(=O)C(N)=O)c2c(OCC(=O)O)cccc21 [IL-V-29, 2,2′-(1,1′-(12,12′-thiobis(dodecane-12,1-diyl))bis(3-(2-amino-2-oxoacetyl)-2-methyl-1H-indole-4,1-diyl))bis(oxy)diacetic acid] gave an IC50 [1] of 530 nM, an IC50 [2] of 790 nM and an IC50 [3, 4] of 460 nM.

With C=CCn1c(C)c(C(=O)C(N)=O)c2c(OCC(=O)O)cccc21 [ILY-V-10] the IC50 [1] was 460 nM, the IC50 [2] was 3210 nM and the inhibition at 15 µM ([3]; human pancreas secreted PLA2) was 64%.

Cc1c(C(=O)C(N)=O)c2c(OCC(=O)O)ccc(NS(C)(=O)=O)c2n1Cc1ccccc1 [ILY-IV-37] gave an IC50 [1] of 280 nM, an IC50 [2] of 1020 nM and an IC50 [3, 4] of 3480 nM.

Cc1c(C(=O)C(N)=O)c2c(OC(CCC(=O)O)C(=O)O)cccc2n1Cc1ccccc1 (stereo not drawn) [ILY-IV-33, 2-(3-Aminooxalyl-1-benzyl-2-methyl-1H-indol-4-yloxy)-pentanedioic acid] showed an IC50 [1] of 3760 nM, an inhibition at 15 µM [2] of 50.3% and an inhibition at 15 µM ([3]; human pancreas secreted PLA2) of 35.9%.

Work on COc1cccc(Cn2c(C)c(C(=O)C(N)=O)c3c(OCC(=O)O)cccc32)c1 [ILY-V-8] yielded an IC50 [1] of 40 nM, an IC50 [2] of 970 nM and an IC50 [3, 4] of 3250 nM.

Cc1c(C(=O)C(N)=O)c2c(OC(F)C(=O)O)cccc2n1Cc1ccccc1 (stereo not drawn) [ILY-IV-24, (3-Aminooxalyl-1-benzyl-2-methyl-1H-indol-4-yloxy)-fluoro-acetic acid] gave an IC50 [1] of 1420 nM, an inhibition at 15 µM [2] of 63.7% and an inhibition at 15 µM ([3]; human pancreas secreted PLA2) of 52.4%.

Cc1c(C(=O)C(N)=O)c2c(OCC(=O)O)cccc2n1CCCCCCCCCCCCSSCCCCCCCCCCCCn1c(C)c(C(=O)C(N)=O)c2c(OCC(=O)O)cccc21 [ILY-V-28, 2,2′-(1,1′-(12,12′-disulfanediylbis(dodecane-12,1-diyl))bis(3-(2-amino-2-oxoacetyl)-2-methyl-1H-indole-4,1-diyl))bis(oxy)diacetic acid] gave an IC50 [1] of 730 nM, an IC50 [2] of 1000 nM and an IC50 [3, 4] of 600 nM.

Work on Cc1c(C(=O)C(N)=O)c2c(OC(C(N)=O)C(C)C)cccc2n1Cc1ccccc1 (stereo not drawn) [ILY-IV-45, 2-(3-(2-amino-2-oxoacetyl)-1-benzyl-2-methyl-1H-indol-4-yloxy)-3-methylbutanamide] yielded an IC50 [1] of 1030 nM, an inhibition at 15 µM [2] of 65.5% and an inhibition at 15 µM ([3]; human pancreas secreted PLA2) of 74%.

Cc1c(C(=O)C(N)=O)c2c(OC(C(=O)O)c3ccccc3)cccc2n1Cc1ccccc1 (stereo not drawn) [ILY-IV-32, (3-Aminooxalyl-1-benzyl-2-methyl-1H-indol-4-yloxy)-phenyl-acetic acid] showed an inhibition at 15 µM ([1]; read-out: ILYPSA % inhibition at 15 μM pps PLA2, 15 μM) of 38.5%, an inhibition at 15 µM [2] of 47.5% and an inhibition at 15 µM ([3]; human pancreas secreted PLA2) of 41.7%.

Cc1c(C(=O)C(N)=O)c2c(OCC(=O)O)ccc(N)c2n1Cc1ccccc1 [ILY-IV-35] was tested, and the IC50 [1] was 320 nM, the IC50 [2] was 1740 nM and the IC50 [3, 4] was 8840 nM.

With Cc1c(C(=O)C(N)=O)c2c(OCC(=O)O)cccc2n1CCCCCCCCCCCCN(CCCCCCCCCCCCn1c(C)c(C(=O)C(N)=O)c2c(OCC(=O)O)cccc21)Cc1ccccc1 [ILY-V-31, 2,2′-(1,1′-(12,12′-(benzylazanediyl)bis(dodecane-12,1-diyl))bis(3-(2-amino-2-oxoacetyl)-2-methyl-1H-indole-4,1-diyl))bis(oxy)diacetic acid] the IC50 [1] was 20 nM, the IC50 [2] was 30 nM and the IC50 [3, 4] was 100 nM.

Cc1c(C(=O)C(N)=O)c2c(O)cccc2n1CCCCCCCCCCCCSCCCCCCCCCCCCn1c(C)c(C(=O)C(N)=O)c2c(O)cccc21 [ILY-V-35] gave an IC50 [1] of 2090 nM, an IC50 [2] of 3650 nM and an IC50 [3, 4] of 1520 nM.

CCC(Oc1cccc2c1c(C(=O)C(N)=O)c(C)n2Cc1ccccc1)C(=O)O (stereo not drawn) [ILY-IV-20, 2-(3-Aminooxalyl-1-benzyl-2-methyl-1H-indol-4-yloxy)-butyric acid] gave an IC50 [1] of less than 20 nM, an IC50 [2] of less than 20 nM and an IC50 [3] of 180 nM.

From patent US20070135383A1, “Phospholipase inhibitors, including multi-valent phospholipase inhibitors, and use thereof, including as lumen-localized phospholipase inhibitors” (priority 2005, published 2007)
